According to patent publication US11407771B2 (priority 2018, dated 2022):
Where two headings read alike, the source gives them in different places.

Key:
MAPK13 [1] = biological target: T1, MAPK13 (Homo sapiens (Human), UniProt O15264); test: biochemical
MAPK13 [2] = biological target: T1, MAPK13; details: read-out: MAPK13 inhibition
[3] = system: MUC5AC mucin formation in IL-13-stimulated hTEC

T1 sequence (O15264 whole entry): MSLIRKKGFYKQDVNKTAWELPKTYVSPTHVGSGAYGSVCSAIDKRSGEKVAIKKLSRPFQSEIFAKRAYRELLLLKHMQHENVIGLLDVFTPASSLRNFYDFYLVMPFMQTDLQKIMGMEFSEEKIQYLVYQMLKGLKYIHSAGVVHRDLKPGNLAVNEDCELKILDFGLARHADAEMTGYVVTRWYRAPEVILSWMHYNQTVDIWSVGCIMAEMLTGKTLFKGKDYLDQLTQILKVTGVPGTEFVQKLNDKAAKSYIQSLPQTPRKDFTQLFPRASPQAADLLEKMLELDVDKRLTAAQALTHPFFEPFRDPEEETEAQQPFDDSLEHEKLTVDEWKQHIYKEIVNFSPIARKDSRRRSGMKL

| IC50 (MAPK13 [1]) [µM] | Structure (SMILES) | IC50 (MAPK13 [2]) [µM] | MUC5AC production [3] |
| --- | --- | --- | --- |
| 0.25 to 1 | CC(C)(C)c1cc(NC(=O)Nc2ncc(CCc3ccncc3)s2)on1 [Compound 386, 1-(3-tert-Butyl-isoxazol-5-yl)-3-[5-(2-pyridin-4-yl-ethyl)-thiazol-2-yl]-urea] | – | – |
| 0.25 to 1 | CC(C)(C)c1cc(NC(=O)Nc2ncc(CCc3ccncc3)s2)no1 [Compound 387, 1-(5-tert-Butyl-isoxazol-3-yl)-3-[5-(2-pyridin-4-yl-ethyl)-thiazol-2-yl]-urea] | – | – |
| < 0.25 | CC(=O)Nc1cc(Oc2ccc(NC(=O)Nc3cc(C(C)(C)C)nn3CC3CC3)c(F)c2)ccn1 [Compound 393, N-(4-{4-[3-(5-tert-Butyl-2-cyclopropylmethyl-2H-pyrazol-3-yl)-ureido]-3-fluoro-phenoxy}-pyridin-2-yl)-acetamide] | – | – |
| 0.25 to 1 | CC(=O)Nc1cc(COc2ccc(NC(=O)Nc3cc(C(C)(C)C)nn3CC3CC3)c(F)c2)ccn1 [Compound 413, N-(4-{4-[3-(5-tert-Butyl-2-cyclopropylmethyl-2H-pyrazol-3-yl)-ureido]-3-fluoro-phenoxymethyl}-pyridin-2-yl)-acetamide] | – | – |
| 0.25 to 1 | CC(=O)Nc1cc(COc2ccc(NC(=O)Nc3cc(C(C)(C)C)ccc3Cl)c(F)c2)ccn1 [Compound 414, N-(4-{4-[3-(5-tert-Butyl-2-chloro-phenyl)-ureido]-3-fluoro-phenoxymethyl}-pyridin-2-yl)-acetamide] | – | – |

The remaining lines, values behind:

| Structure (SMILES) | IC50 (MAPK13 [1]) [µM] | IC50 (MAPK13 [2]) [µM] | MUC5AC production [3] |
| --- | --- | --- | --- |
| COC(=O)Nc1cc(CCc2ccc(NC(=O)Nc3cc(C(C)(C)C)nn3CC3CC3)c(F)c2)ccn1 [Compound 316, [4-(2-{4-[3-(5-tet-Butyl-2-cyclopropylmethyl-2H-pyrazol-3-yl)-ureido]-3-fluoro-phenyl}-ethyl)-pyridin-2-yl]-carbamic acid methyl ester] | 0.25 to 1 | – | – |
| CCOC(=O)Nc1cc(CCc2cnc(NC(=O)Nc3cc(C(C)(C)C)n[nH]3)s2)ccn1 [Compound 354, [4-(2-{2-[3-(5-tert-Butyl-2H-pyrazol-3-yl)-ureido]-thiazol-5-yl}-ethyl)-pyridin-2-yl]-carbamic acid ethyl ester] | – | < 0.25 | marked attenuation |
| CC(C)(C)c1cc(NC(=O)Nc2ncc(CCc3ccnc(N)c3)s2)no1 [Compound 365, 1-{5-[2-(2-Amine-pyridin-4-yl)-ethyl]-thiazol-2-yl}-3-(5-tert-butyl-isoxazol-3-yl)-urea] | 0.25 to 1 | – | – |
| CC(C)(C)c1cc(NC(=O)Nc2ncc(CCc3ccnc(N)c3)s2)[nH]n1 [Compound 367, 1-{5-[2-(2-Ainino-pyridin-4-yl)-ethyl]-thiazol-2-yl}-3-(5-tert-butyl-2H-pyrazol-3-yl)-urea] | 0.25 to 1 | – | – |
| Cn1nc(C(C)(C)C)cc1NC(=O)Nc1ccc(CCc2ccnc(NC(=O)C3CC3)c2)cc1F [Compound 373, Cyclopropanecarboxylic acid [4-(2-{4-[3-(5-tert-butyl-2-methyl-2H-pyrazol-3-yl)-ureido]-3-fluoro-phenyl}-ethyl)-pyridin-2-yl]-amide] | 0.25 to 1 | – | – |
| CC(=O)Nc1cc(CCc2ccc(NC(=O)Nc3cc(C(C)(C)C)nn3-c3ccc(F)cc3)c(F)c2)ccn1 [Compound 379, N-{4-[2-(4-{3-[5-tert-Butyl-2-(4-fluoro-phenyl)-2H-pyrazol-3-yl]-ureido}-3-fluoro-phenyl)-ethyl]-pyridin-2-yl}-acetamide] | 0.25 to 1 | – | – |
| CC(=O)Nc1cc(Oc2ccc(NC(=O)Nc3cc(C4CC4)ccc3F)c(F)c2)ccn1 [Compound 397, N-(4-{4-[3-(5-Cyclopropyl-2-fluoro-pheny)-ureido]-3-fluoro-phenoxy}-pyridin-2-yl)-actamde] | – | < 0.25 | marked attenuation |
| CC(=O)Nc1cc(CCc2cnc(NC(=O)Nc3cc(C4CC4)ccc3F)s2)ccn1 [Compound 398, N-[4-(2-{2-[3-(5-Cyclopropyl-2-fluoro-phenyl)-ureido]-thiazol-5-yl}-ethyl)-pyridin-2-yl]-acetamide] | – | < 0.25 | marked attenuation |
| O=c1ncn2nc(Sc3ccc(F)cc3F)ccc2c1-c1c(Cl)cccc1Cl [Compound 401, VX-745, reference compound] | – | – | no significant inhibition |
| CC(=O)Nc1cc(COc2ccc(NC(=O)Nc3cc([Si](C)(C)C)ccc3F)c(F)c2)ccn1 [Compound 405, N-(4-{3-fluoro-4-[3-(2-fluoro-trimethylsilanyl-phenyl)-ureido]-phenoxymethyl}-pyridin-2-yl)-acetamide] | 0.25 to 1 | – | – |
